Measurements taken from patent publication US20090203753A1, “7-(2-amino-1-hydroxy-ethyl)-4-hydroxybenzothiazol-2(3H)-one-derivatives as beta2 adrenoreceptor agonists” (AstraZeneca AB, priority 2005, published 2009).

Experiments:
[1] = target: T1, β2 receptor (Homo sapiens, UniProt P07550); test: Alternative adrenergic β2 mediated cAMP production in H292 cells (60 minutes with test compound); assay type: cell-based
T1 construct: endogenous in cells; host or cells: H292 cells
Method: Alternative Adrenergic (β2 Mediated cAMP Production
H292 cells were grown in 225 cm2 flasks incubator at 37° C., 5% CO2 in RPMI medium containing, 10% (v/v) FBS (foetal bovine serum) and 2 mM L-glutamine.
Adherent H292 cells were removed from tissue culture flasks by treatment with Accutase™ cell detachment solution for 15 minutes. Flasks were incubated for 15 minutes in a humidified incubator at 37° C., 5% CO2. Detached cells were re-suspended in RPMI media (containing 10% (v/v) FBS and 2 mM L-glutamine) at 0.05×10^6 cells per mL. 5000 cells in 100 μL were added to each well of a tissue-culture-treated 96-well plate and the cells incubated overnight in a humidified incubator at 37° C., 5% CO2. The culture media was removed and cells were washed twice with 100 μL assay buffer and replaced with 50 μL assay buffer (HBSS solution containing 10 mM HEPES pH7.4 and 5 mM glucose). Cells were rested at room temperature for 20 minutes after which time 25 μL of rolipram (1.2 mM made up in assay buffer containing 2.4% (v/v) dimethylsulphoxide) was added. Cells were incubated with rolipram for 10 minutes after which time test compounds were added and the cells were incubated for 60 minutes at room temperature. The final rolipram concentration in the assay was 300 μM and final vehicle concentration was 1.6% (v/v) dimethylsulphoxide. The reaction was stopped by removing supernatants, washing once with 100 μL assay buffer and replacing with 50 μL lysis buffer. The cell monolayer was frozen at −80° C. for 30 minutes (or overnight).
The concentration of cAMP (cyclic adenosine monophosphate) in the cell lysate was determined using AlphaScreen™ methodology. The frozen cell plate was thawed for 20 minutes on a plate shaker then 10 μL of the cell lysate was transferred to a 96-well white plate. 40 μL of mixed AlphaScreen™ detection beads pre-incubated with biotinylated cAMP, was added to each well and the plate incubated at room temperature for 10 hours in the dark. The AlphaScreen™ signal was measured using an EnVision spectrophotometer (Perkin-Elmer Inc.) with the recommended manufacturer's settings. cAMP concentrations were determined by reference to a calibration curve determined in the same experiment using standard cAMP concentrations. Concentration response curves for agonists were constructed and data was fitted to a four parameter logistic equation to determine both the pEC50 and Intrinsic Activity. […]

[2] = target: T2, recombinant human α1D receptor (Homo sapiens, UniProt P25100); test: Adrenergic α1D selectivity assay, [3H]-prazosin binding to HEK293 membranes; settings: read-out: α1 bind pIC50 (converted)
T2 construct: expressed in transfected cells; host or cells: HEK293
T2 sequence (P25100 1-572): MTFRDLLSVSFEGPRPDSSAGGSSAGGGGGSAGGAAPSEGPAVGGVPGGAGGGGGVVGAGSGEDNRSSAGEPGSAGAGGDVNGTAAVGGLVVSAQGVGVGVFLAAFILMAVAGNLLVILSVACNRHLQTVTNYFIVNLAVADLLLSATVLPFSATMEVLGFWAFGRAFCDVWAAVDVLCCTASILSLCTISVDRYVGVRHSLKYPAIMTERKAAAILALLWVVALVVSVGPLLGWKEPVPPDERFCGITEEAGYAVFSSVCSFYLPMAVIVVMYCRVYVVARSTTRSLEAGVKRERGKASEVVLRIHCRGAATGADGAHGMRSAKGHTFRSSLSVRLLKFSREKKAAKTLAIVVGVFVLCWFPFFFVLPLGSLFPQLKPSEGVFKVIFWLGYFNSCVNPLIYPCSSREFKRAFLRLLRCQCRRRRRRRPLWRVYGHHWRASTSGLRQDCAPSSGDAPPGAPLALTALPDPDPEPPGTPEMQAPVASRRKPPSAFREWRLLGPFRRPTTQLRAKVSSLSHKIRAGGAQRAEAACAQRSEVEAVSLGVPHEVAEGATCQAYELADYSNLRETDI
Method: Membranes were prepared from human embryonic kidney 293 (HEK293) cells expressing recombinant human α1D receptor. These were diluted in Assay Buffer (50 mM HEPES, 1 mM EDTA, 0.1% gelatin, pH 7.4) to provide a final concentration of membranes that gave a clear window between maximum and minimum specific binding.
(§1) Assays were performed in U-bottomed 96-well polypropylene plates. 10 μL [^3H]-prazosin (0.3 nM final concentration) and 10 μL of test compound (10× final concentration) were added to each test well. For each assay plate 8 replicates were obtained for [^3H]-prazosin binding in the presence of 10 μL vehicle (10% (v/v) DMSO in Assay Buffer; defining maximum binding) or 10 μL BMY7378 (10 μM final concentration; defining non-specific binding (NSB)). Membranes were then added to achieve a final volume of 100 μL. The plates were incubated for 2 hours at room temperature and then filtered onto PEI coated GF/B filter plates, pre-soaked for 1 hour in Assay Buffer, using a 96-well plate Tomtec cell harvester. Five washes with 250 μL wash buffer (50 mM HEPES, 1 mM EDTA, pH 7.4) were performed at 4° C. to remove unbound radioactivity. The plates were dried then sealed from underneath using Packard plate sealers and MicroScint-O (50 μL) was added to each well. The plates were sealed (TopSeal A) and filter-bound radioactivity was measured with a scintillation counter (TopCount, Packard BioScience) using a 3-minute counting protocol.
(§2) Total specific binding (B0) was determined by subtracting the mean NSB from the mean maximum binding. NSB values were also subtracted from values from all other wells.

[3] = target: T3, recombinant human Dopamine Subtype D2s receptors (Homo sapiens, UniProt P14416); test: Dopamine D2 selectivity assay, [3H]-spiperone binding to membranes; settings: read-out: D2 bind pIC50 (converted)
T3 construct: purchased Perkin Elmer
T3 sequence (P14416 1-414 isoform P14416-2): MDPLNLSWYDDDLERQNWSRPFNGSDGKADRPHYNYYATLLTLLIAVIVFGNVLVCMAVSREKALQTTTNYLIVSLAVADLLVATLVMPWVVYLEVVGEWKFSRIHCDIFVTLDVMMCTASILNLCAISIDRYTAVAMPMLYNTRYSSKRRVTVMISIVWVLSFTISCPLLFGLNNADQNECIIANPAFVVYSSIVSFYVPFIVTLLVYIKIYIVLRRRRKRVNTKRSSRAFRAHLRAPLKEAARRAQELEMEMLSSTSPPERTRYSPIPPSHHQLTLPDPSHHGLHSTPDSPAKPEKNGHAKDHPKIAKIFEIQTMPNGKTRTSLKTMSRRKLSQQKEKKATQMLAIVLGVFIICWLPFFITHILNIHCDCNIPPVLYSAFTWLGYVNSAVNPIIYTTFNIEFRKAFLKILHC
Method: (§3) Membranes containing recombinant human Dopamine Subtype D2s receptors were obtained from Perkin Elmer. These were diluted in Assay Buffer (50 mM HEPES, 1 nM EDTA, 120 mM NaCl, 0.1% gelatin, pH 7.4) to provide a final concentration of membranes that gave a clear window between maximum and minimum specific binding.
Assays were performed in U-bottomed 96-well polypropylene plates. 30 μL [^3H]-spiperone (0.16 nM final concentration) and 30 μL of test compound (10× final concentration) were added to each test well. For each assay plate 8 replicates were obtained for [^3H]-spiperone binding in the presence of 30 μL vehicle (10% (v/v) DMSO in Assay Buffer; defining maximum binding) or 30 μL Haloperidol (10 μM final concentration; defining non-specific binding (NSB)). Membranes were then added to achieve a final volume of 300 μL. The plates were incubated for 2 hours at room temperature and then filtered onto PEI coated GF/B filter plates, pre-soaked for 1 hour in Assay Buffer, using a 96-well plate Tomtec cell harvester. Five washes with 250 μL wash buffer (50 mM HEPES, 1 mM EDTA, 120 mM NaCl, pH 7.4) were performed at 4° C. to remove unbound radioactivity. The plates were dried then sealed from underneath using Packard plate sealers and MicroScint-O (50 μL) was added to each well. The plates were sealed (TopSeal A) and filter-bound radioactivity was measured with a scintillation counter (TopCount, Packard BioScience) using a 3-minute counting protocol.
as §2

[4] = target: T4, recombinant human adrenergic beta 1 receptors (Homo sapiens, UniProt P08588); test: Adrenergic β1 selectivity assay, [125I]-Iodocyanopindolol binding to membranes; settings: inhibition of [125I]-Iodocyanopindolol binding (0.036 nM); read-out: β1 bind pIC50 (converted)
T4 construct: purchased Euroscreen
T4 sequence (P08588 whole entry): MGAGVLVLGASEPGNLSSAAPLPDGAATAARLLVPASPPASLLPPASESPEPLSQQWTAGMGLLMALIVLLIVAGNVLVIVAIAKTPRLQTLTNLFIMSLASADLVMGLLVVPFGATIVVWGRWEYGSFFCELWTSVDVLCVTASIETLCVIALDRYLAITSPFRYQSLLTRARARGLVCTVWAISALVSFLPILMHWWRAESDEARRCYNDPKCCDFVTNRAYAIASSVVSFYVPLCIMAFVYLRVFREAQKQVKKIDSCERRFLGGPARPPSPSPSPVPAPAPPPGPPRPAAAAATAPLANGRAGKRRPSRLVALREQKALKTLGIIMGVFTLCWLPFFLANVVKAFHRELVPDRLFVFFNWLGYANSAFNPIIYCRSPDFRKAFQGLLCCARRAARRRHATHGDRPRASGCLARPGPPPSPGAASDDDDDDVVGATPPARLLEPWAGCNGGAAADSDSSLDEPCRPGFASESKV
Method: as §3, with “adrenergic beta 1” for “Dopamine Subtype D2s”, “Euroscreen.” for “Perkin Elmer.”, “mM” for “nM”
as §1, with “[^125I]-Iodocyanopindolol (0.036” for “[^3H]-prazosin (0.3”, “[^125I]-Iodocyanopindolol” for “[^3H]-prazosin”, “Propranolol” for “BMY7378”, “EDTA, 120 mM NaCl,” for “EDTA,”
as §2

T1 sequence (P07550 whole entry): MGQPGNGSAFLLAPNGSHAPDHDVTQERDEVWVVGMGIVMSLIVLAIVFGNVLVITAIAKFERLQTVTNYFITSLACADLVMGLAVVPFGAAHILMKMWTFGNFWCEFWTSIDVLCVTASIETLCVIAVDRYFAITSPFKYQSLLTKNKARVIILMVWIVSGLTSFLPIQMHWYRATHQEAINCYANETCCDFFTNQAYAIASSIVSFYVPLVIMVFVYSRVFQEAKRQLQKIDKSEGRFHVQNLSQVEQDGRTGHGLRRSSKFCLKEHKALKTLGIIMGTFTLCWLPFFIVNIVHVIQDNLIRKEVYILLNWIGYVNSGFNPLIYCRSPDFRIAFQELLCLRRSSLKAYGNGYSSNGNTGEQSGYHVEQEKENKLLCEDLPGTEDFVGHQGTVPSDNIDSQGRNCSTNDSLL

`CCN(CC)CCN(CCNC[C@H](O)c1ccc(O)c2[nH]c(=O)sc12)C(=O)CCOCCc1cccc(Cl)c1` [Example 9, 3-[2-(3-Chlorophenyl)ethoxy]-N-[2-(diethylamino)ethyl]-N-(2-{[(2R)-2-hydroxy-2-(4-hydroxy-2-oxo-2,3-dihydro-1,3-benzothiazol-7-yl)ethyl]amino}ethyl)propanamide] was tested, and the EC50 ([1]; cAMP, 60 minutes incubation with compound, 300 μM rolipram, read-out: β2 pEC50 (converted)) was 0.00398 µM, the “β2 Int Act” value ([1]; fraction relative to the maximum activity determined for formoterol, 60 minutes incubation) was 0.9 and the IC50 [2] was 2 µM. The IC50 [3] was > 10 µM and the IC50 [4] was 1.58 µM.
